Test results from ChEMBL document CHEMBL1136837, “Unified QSAR approach to antimicrobials. 4. Multi-target QSAR modeling and comparative multi-distance study of the giant components of antiviral drug-drug complex networks” (Bioorg Med Chem, 2009).
pIC50: −log10 of the molar value. Starred links: 1 amine or outer side, 2 acyl side, 3 side chain; linkers in the order of their positions; H or OH if unused. Non-standard residues stand in square brackets, D forms with d. Residues, ends and D or L forms follow the SMILES beside them. *: point of attachment. Dip = N[C@H](C(=O)O)C(c1ccccc1)c1ccccc1; Hyp = O=C(O)[C@@H]1C[C@@H](O)CN1; X8 = CCCN(N*)C(=O)NN(C)c1ccccc1; azaNva = CCCN(N[*:1])C(=O)[*:2]; Cha = N[C@@H](CC1CCCCC1)C(=O)O; X2 = C[C@H](N*)c1cccc2ccccc12; NH(CH2)3Ph = c1ccc(CCCN*)cc1; NHPhenethyl = c1ccc(CCN*)cc1; X3 = C[C@H](N*)c1ccc(Br)cc1; X6 = c1ccc2c(c1)CC(N*)C2; NHBn = c1ccc(CN*)cc1; X1 = Clc1ccccc1CCN*; X4 = C1CCC(CCN*)CC1; Bn = c1ccc(C*)cc1

System: Hepatitis C virus
Experiment: Antiviral activity against Hepatitis C virus
Assay type: functional, organism-based, Hepacivirus hominis
Conditions: Hepatitis C virus

SMILES	pIC50
CCc1ccc(C(=O)CC(=O)C(=O)O)cc1	4.33
Cc1ccc(C(=O)CC(=O)C(=O)O)cc1	4.30
N#CCCCOc1ccccc1C(=O)CC(=O)C(=O)O	6.46
O=C(O)C(=O)CC(=O)c1cccc(NS(=O)(=O)c2ccccc2)c1	4.80
COC(=O)C(=O)CC(=O)c1ccccc1	4.30
O=C(CC(O)C(=O)O)c1ccccc1 (stereo unspecified)	4.30
CC(C)(C)C(=O)CC(=O)C(=O)O	4.30
CCCC1(CC(=O)OCC)OCCc2c1[nH]c1c(C)ccc(C#N)c21 (stereo unspecified)	4.52
O=C(O)[C@H](Cc1ccccc1)N(Cc1cccc(Br)c1)C(=O)c1ccc(Cl)cc1Cl	5.46
O=C(O)[C@H](Cc1ccccc1)N(Cc1cccc([N+](=O)[O-])c1)C(=O)c1ccc(Cl)cc1Cl	6.15
O=C(O)[C@H](Cc1ccccc1)N(Cc1cccc(C(F)(F)F)c1)C(=O)c1ccc(Cl)cc1Cl	5.77
Cc1cccc(CN(C(=O)c2ccc(Cl)cc2Cl)[C@@H](Cc2ccccc2)C(=O)O)c1	5.74
O=C(O)[C@H](Cc1ccccc1)N(Cc1cccc(F)c1)C(=O)c1ccc(Cl)cc1Cl	5.49
O=C(O)[C@H](Cc1ccccc1)N(Cc1ccc(-c2cc3ccccc3o2)s1)C(=O)c1ccc(Cl)cc1Cl	5.07
O=C(O)[C@H](Cc1ccccc1)N(Cc1cccnc1)C(=O)c1ccc(Cl)cc1Cl	4.96
COc1ccc2c(O[C@@H]3C[C@H]4C(=O)N[C@]5(C(=O)O)C[C@H]5/C=C\CCCCC[C@H](NC(=O)OC5CCCC5)C(=O)N4C3)cc(-n3cccc3)nc2c1	8.44
COc1ccc2c(O[C@@H]3C[C@H]4C(=O)N[C@]5(C(=O)O)C[C@H]5/C=C\CCCCC[C@H](NC(=O)OC(C)(C)C)C(=O)N4C3)cc(-n3ccnc3)nc2c1	8.33
CNc1nc(-c2cc(O[C@@H]3C[C@H]4C(=O)N[C@]5(C(=O)O)C[C@H]5/C=C\CCCCC[C@H](NC(=O)OC5CCCC5)C(=O)N4C3)c3ccc(OC)cc3n2)cs1	8.60
COc1ccc2c(O[C@@H]3C[C@H]4C(=O)N[C@]5(C(=O)O)C[C@H]5/C=C\CCCCC[C@H](NC(=O)OC(C)(C)C)C(=O)N4C3)cc(-n3cccc3)nc2c1	8.29
COc1ccc2c(O[C@@H]3C[C@H]4C(=O)N[C@]5(C(=O)O)C[C@H]5/C=C\CCCCC[C@H](NC(=O)OC5CCCC5)C(=O)N4C3)cc(-c3csc(N)n3)nc2c1	8.46
CCNc1nc(-c2cc(O[C@@H]3C[C@H]4C(=O)N[C@]5(C(=O)O)C[C@H]5/C=C\CCCCC[C@H](NC(=O)OC5CCCC5)C(=O)N4C3)c3ccc(OC)cc3n2)cs1	8.54
COc1ccc2c(O[C@@H]3C[C@H]4C(=O)N[C@]5(C(=O)O)C[C@H]5/C=C\CCCCC[C@H](NC(=O)OC(C)(C)C)C(=O)N4C3)cc(-c3csc(NC(C)=O)n3)nc2c1	8.32
C[C@@]1(O)[C@H](O)[C@@H](CO)O[C@H]1n1ncc2c(N)ncnc21	4.00

SMILES	pIC50
COc1ccc2c(O[C@@H]3C[C@H]4C(=O)N[C@]5(C(=O)O)C[C@H]5/C=C\CCCCC[C@H](NC(=O)OC5CCCC5)C(=O)N4C3)cc(-c3csc(NC(C)=O)n3)nc2c1	8.60
COc1ccc2c(O[C@@H]3C[C@H]4C(=O)N[C@]5(C(=O)O)C[C@H]5/C=C\CCCCC[C@H](NC(=O)OC(C)(C)C)C(=O)N4C3)cc(-n3ccc(C)n3)nc2c1	8.52
COc1ccc2c(O[C@@H]3C[C@H]4C(=O)N[C@]5(C(=O)O)C[C@H]5/C=C\CCCCC[C@H](NC(=O)OC5CCC5)C(=O)N4C3)cc(-c3csc(NC(C)=O)n3)nc2c1	8.59
COc1ccc2c(O[C@@H]3C[C@H]4C(=O)N[C@]5(C(=O)O)C[C@H]5/C=C\CCCCC[C@H](NC(=O)OC(C)(C)C)C(=O)N4C3)cc(-c3nnc(C)o3)nc2c1	7.92
COc1ccc2c(O[C@@H]3C[C@H]4C(=O)N[C@]5(C(=O)O)C[C@H]5/C=C\CCCCC[C@H](NC(=O)OC(C)(C)C)C(=O)N4C3)cc(-c3csc(N)n3)nc2c1	8.26
O=C(O)[C@H](Cc1ccccc1)N(Cc1cccc(Cl)c1)C(=O)c1ccc(Cl)cc1Cl	5.85
COc1ccc2c(O[C@@H]3C[C@H]4C(=O)N[C@]5(C(=O)O)C[C@H]5/C=C\CCCCC[C@H](NC(=O)OC5CCCC5)C(=O)N4C3)cc(-n3ccc(C)n3)nc2c1	8.66
COc1ccc2c(O[C@@H]3C[C@H]4C(=O)N[C@]5(C(=O)O)C[C@H]5/C=C\CCCCC[C@H](NC(=O)OC(C)(C)C)C(=O)N4C3)cc(-n3cnc(C)c3)nc2c1	7.85
N#Cc1c(Cl)cccc1COc1cccc(C(=O)/C=C(\O)C(=O)O)c1	6.96
CC(C)COC(=O)N[C@@H](CCC(=O)O)C(=O)N[C@@H](CC(C)C)C(=O)N[C@@H](CS)C(=O)NCCc1ccc(C(=O)O)cc1	5.70
COC(=O)c1ccccc1CCNC(=O)[C@H](CS)NC(=O)[C@H](CC(C)C)NC(=O)[C@H](CCC(=O)O)NC(=O)OCC(C)C	4.27
N#Cc1c(Cl)cc(Cl)cc1COc1cccc(C(=O)/C=C(\O)C(=O)O)c1	7.35
Cc1cn([C@@H]2O[C@H](CO)[C@@H](O)[C@@]2(C)O)c2ncnc(N)c12	4.47
C[C@@]1(O)[C@H](O)[C@@H](CO)O[C@H]1n1ccc2c(N)nc(F)nc21	4.00
O=C(CC(=O)C(=O)O)Cc1ccncc1	4.30
O=C(CC(=O)C(=O)O)Cc1ccco1	4.30
CCC[C@@]1(CC(=O)O)OCCc2c1[nH]c1c(Cl)ccc(CC)c21	4.82
CC(=O)N[C@@H](CC(=O)O)C(=O)N[C@@H](CCC(=O)O)C(=O)N[C@H](C(=O)N[C@@H](CCC(=O)O)C(=O)N[C@@H](CC1CCCCC1)C(=O)N[C@@H](CS)C(=O)NCCc1ccccc1)C(c1ccccc1)c1ccccc1 (Ac-DE[Dip]E[Cha]C-NHPhenethyl)	8.15
CC(=O)N[C@@H](CC(=O)O)C(=O)N[C@@H](CCC(=O)O)C(=O)N[C@H](C(=O)N[C@@H](CCC(=O)O)C(=O)N[C@@H](CC1CCCCC1)C(=O)N[C@@H](CS)C(=O)NCCc1ccccc1Cl)C(c1ccccc1)c1ccccc1 (Ac-DE[Dip]E[Cha]C-X1)	8.70
CC(=O)N[C@@H](CC(=O)O)C(=O)N[C@@H](CCC(=O)O)C(=O)N[C@H](C(=O)N[C@@H](CCC(=O)O)C(=O)N[C@@H](CC1CCCCC1)C(=O)N[C@@H](CS)C(=O)NCCC1CCCCC1)C(c1ccccc1)c1ccccc1 (Ac-DE[Dip]E[Cha]C-X4)	5.81
CCCN(NC(=O)[C@@H]1C[C@@H](OCc2ccccc2)CN1C(=O)[C@@H](NC(=O)[C@@H](NC(=O)[C@@H](CCC(=O)O)NC(=O)[C@H](CC(=O)O)NC(C)=O)[C@@H](C)CC)C(C)C)C(=O)N[C@@H](C)c1cccc2ccccc12 (Ac-D[dE]IV[Hyp](Bn)[azaNva]-X2)	6.31
CCCN(NC(=O)[C@@H]1C[C@@H](OCc2ccccc2)CN1C(=O)[C@@H](NC(=O)[C@@H](NC(=O)[C@@H](CCC(=O)O)NC(=O)[C@H](CC(=O)O)NC(C)=O)[C@@H](C)CC)C(C)C)C(=O)N[C@@H](C)c1ccc(Br)cc1 (Ac-D[dE]IV[Hyp](Bn)[azaNva]-X3)	7.14

Further compounds by rising pIC50, results first:

pIC50	SMILES
4.30	CC(C)(C)c1ccc(C(=O)CC(=O)C(=O)O)cc1
4.30	CC(=O)CC(=O)C(=O)O
4.36	O=C(O)C(=O)CC(=O)c1ccccc1OCc1ccccc1
4.52	CCc1ccc(Cl)c2[nH]c3c(c12)CCOC3(CC)CC(=O)O (stereo unspecified)
4.60	COC(=O)c1cccc(CCNC(=O)[C@H](CS)NC(=O)[C@H](CC(C)C)NC(=O)[C@H](CCC(=O)O)NC(=O)OCC(C)C)c1
4.72	CC(C)COC(=O)N[C@@H](CCC(=O)O)C(=O)N[C@@H](CC(C)C)C(=O)N[C@@H](CS)C(=O)NCCc1ccccc1
5.00	CCCCOc1ccccc1C(=O)CC(=O)C(=O)O
5.10	N#Cc1ccc(CN(C(=O)c2ccc(Cl)cc2Cl)[C@@H](Cc2ccccc2)C(=O)O)cc1
5.22	N#Cc1ccccc1CN(C(=O)c1ccc(Cl)cc1Cl)[C@@H](Cc1ccccc1)C(=O)O
5.24	O=C(O)C(=O)CC(=O)c1ccccc1
5.62	CCC[C@@]1(CC(=O)O)OCCc2c1[nH]c1c(C)ccc(C#N)c21
5.77	CC(=O)N[C@@H](CC(=O)O)C(=O)N[C@@H](CCC(=O)O)C(=O)N[C@H](C(=O)N[C@@H](CCC(=O)O)C(=O)N[C@@H](CC1CCCCC1)C(=O)N[C@@H](CS)C(=O)NC1Cc2ccccc2C1)C(c1ccccc1)c1ccccc1 (Ac-DE[Dip]E[Cha]C-X6)
6.20	CCC[C@@]1(CC(=O)O)OCCc2c1[nH]c1c(C)cc(F)c(C#N)c21
6.32	CCCN(NC(=O)[C@@H]1C[C@@H](OCc2ccccc2)CN1C(=O)[C@@H](NC(=O)[C@@H](NC(=O)[C@@H](CCC(=O)O)NC(=O)[C@H](CC(=O)O)NC(C)=O)[C@@H](C)CC)C(C)C)C(=O)NN(C)c1ccccc1 (Ac-D[dE]IV[Hyp](Bn)-X8)
6.60	CC(=O)N[C@@H](CC(=O)O)C(=O)N[C@@H](CCC(=O)O)C(=O)N[C@H](C(=O)N[C@@H](CCC(=O)O)C(=O)N[C@@H](CC1CCCCC1)C(=O)N[C@@H](CS)C(=O)NCc1ccccc1)C(c1ccccc1)c1ccccc1 (Ac-DE[Dip]E[Cha]C-NHBn)
6.64	N#Cc1ccccc1COc1cccc(C(=O)/C=C(\O)C(=O)O)c1
6.68	CC(=O)N[C@@H](CC(=O)O)C(=O)N[C@@H](CCC(=O)O)C(=O)N[C@H](C(=O)N[C@@H](CCC(=O)O)C(=O)N[C@@H](CC1CCCCC1)C(=O)N[C@@H](CS)C(=O)NCCCc1ccccc1)C(c1ccccc1)c1ccccc1 (Ac-DE[Dip]E[Cha]C-{NH(CH2)3Ph})
7.00	N#Cc1ccc(Br)cc1COc1cccc(C(=O)/C=C(\O)C(=O)O)c1
8.19	CNc1nc(-c2cc(O[C@@H]3C[C@H]4C(=O)N[C@]5(C(=O)O)C[C@H]5/C=C\CCCCC[C@H](NC(=O)OC(C)(C)C)C(=O)N4C3)c3ccc(OC)cc3n2)cs1
8.66	COc1ccc2c(O[C@@H]3C[C@H]4C(=O)N[C@]5(C(=O)O)C[C@H]5/C=C\CCCCC[C@H](NC(=O)OC5CCCC5)C(=O)N4C3)cc(-n3cccn3)nc2c1
8.85	COc1ccc2c(O[C@@H]3C[C@H]4C(=O)N[C@]5(C(=O)O)C[C@H]5/C=C\CCCCC[C@H](NC(=O)N[C@H](C)C(C)(C)C)C(=O)N4C3)cc(-c3csc(NC(C)=O)n3)nc2c1
